This test has as its system patient with pseudovitelliform dystrophy. As to the kind of experiment: Clinical treatment of adult pseudo-vitelliform dystrophy: visual acuity. The format is in vivo, human. The conditions noted are these: for visual acuity after treatment: one patient, one month. How it is done:
The invention will now be illustrated by the following description of clinical examples which, of course, are not limiting in nature. In these examples the active principle, in particular ramipril, was administered continuously in an oral form, in an amount of 1.25 mg per day.
Ramipril was used in the following three disorders: retinitis pigmentosa; Stargardt's disease, fundus flavimaculatus; adult pseudo-vitelliform dystrophy.
One patient was tested. Acuity improved in one month from 1.6 to 2/10 in the right eye and from 2/10 to 3/10 in the left eye. The activity of the ramipril in these hereditary dystrophies is unique.

As to `CCOC(=O)[C@H](CCc1ccccc1)N[C@@H](C)C(=O)N1[C@H](C(=O)O)C[C@@H]2CCC[C@@H]21` [ramipril], where the note is “adult pseudo-vitelliform dystrophy, all cases”, the visual function result was “improvement in visual function”. For the same compound, the “visual acuity after treatment” value (left eye, before 2/10) is listed as 3/10 and the “visual acuity after treatment” value (right eye, before 1.6) is given as 2/10.

Source of the values: patent US7049340B1, “Neuroprotective and retinoprotective ophthalmologic drugs” (priority 1999, dated 2006).
